Measurements taken from patent US8192962B2, “Processes for detecting toxic substances” (Daikin Industries, Ltd., priority 2001, dated 2012).

System: Transport facilitation protein genes
Assay: DNA chip mRNA expression in yeast, transport facilitation protein genes (Table 5)
Type: cell-based, Saccharomyces cerevisiae S288C
Summary of the method: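 Expression change after 2 h toxicant exposure (growth-inhibiting, sub-lethal) of log-phase S. cerevisiae S288C at 25° C. Oligo-dT-purified mRNA was labeled with Cy3-dUTP or Cy5-dUTP and hybridized >12 h at 65° C. to a genome-wide chip; ratio of scanned fluorescence to control.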

Q: Which “The level of expressed mRNA in the presence of chemical substance/The level of expressed mRNA in the absence of chemical substance” value (yeast gene YGR224W) does the source give for `CCCCCCCCCCCCOS(=O)(=O)[O-].[Na+]` [(18), sodium lauryl sulfate] here?
A: 1.3

Q: And the “The level of expressed mRNA in the presence of chemical substance/The level of expressed mRNA in the absence of chemical substance” value (yeast gene YGR260W)?
A: 0.9

Q: And the “The level of expressed mRNA in the presence of chemical substance/The level of expressed mRNA in the absence of chemical substance” value (yeast gene YGR281W)?
A: 3.1

Q: And the “The level of expressed mRNA in the presence of chemical substance/The level of expressed mRNA in the absence of chemical substance” value (yeast gene YHL035C)?
A: 1.2

Q: What about the “The level of expressed mRNA in the presence of chemical substance/The level of expressed mRNA in the absence of chemical substance” value (yeast gene YHL040C) of the same compound?
A: 1.0

Q: What about the “The level of expressed mRNA in the presence of chemical substance/The level of expressed mRNA in the absence of chemical substance” value (yeast gene YHL047C) of the same compound?
A: 1.2

Q: What about the “The level of expressed mRNA in the presence of chemical substance/The level of expressed mRNA in the absence of chemical substance” value (yeast gene YHR026W) of the same compound?
A: 1.1

Q: What about the “The level of expressed mRNA in the presence of chemical substance/The level of expressed mRNA in the absence of chemical substance” value (yeast gene YHR092C) of the same compound?
A: 1.3

Q: What about the “The level of expressed mRNA in the presence of chemical substance/The level of expressed mRNA in the absence of chemical substance” value (yeast gene YHR094C) of the same compound?
A: 1.4

Q: What about the “The level of expressed mRNA in the presence of chemical substance/The level of expressed mRNA in the absence of chemical substance” value (yeast gene YHR175W) of the same compound?
A: 1.2

Q: What about the “The level of expressed mRNA in the presence of chemical substance/The level of expressed mRNA in the absence of chemical substance” value (yeast gene YIL006W) of the same compound?
A: 0.9

Q: And the “The level of expressed mRNA in the presence of chemical substance/The level of expressed mRNA in the absence of chemical substance” value (yeast gene YIL022W)?
A: 0.7

Q: What about the “The level of expressed mRNA in the presence of chemical substance/The level of expressed mRNA in the absence of chemical substance” value (yeast gene YIL056W) of the same compound?
A: 1.2

Q: What about the “The level of expressed mRNA in the presence of chemical substance/The level of expressed mRNA in the absence of chemical substance” value (yeast gene YIL088C) of the same compound?
A: 1.4

Q: And the “The level of expressed mRNA in the presence of chemical substance/The level of expressed mRNA in the absence of chemical substance” value (yeast gene YJL034W)?
A: 1.0

Q: And the “The level of expressed mRNA in the presence of chemical substance/The level of expressed mRNA in the absence of chemical substance” value (yeast gene YJL212C)?
A: 0.5

Q: What about the “The level of expressed mRNA in the presence of chemical substance/The level of expressed mRNA in the absence of chemical substance” value (yeast gene YJL219W) of the same compound?
A: 1.2

Q: What about the “The level of expressed mRNA in the presence of chemical substance/The level of expressed mRNA in the absence of chemical substance” value (yeast gene YJR077C) of the same compound?
A: 0.8

Q: What about the “The level of expressed mRNA in the presence of chemical substance/The level of expressed mRNA in the absence of chemical substance” value (yeast gene YJR106W) of the same compound?
A: 1.3

Q: And the “The level of expressed mRNA in the presence of chemical substance/The level of expressed mRNA in the absence of chemical substance” value (yeast gene YJR121W)?
A: 1.4

Q: And the “The level of expressed mRNA in the presence of chemical substance/The level of expressed mRNA in the absence of chemical substance” value (yeast gene YKL016C)?
A: 1.7

Q: What about the “The level of expressed mRNA in the presence of chemical substance/The level of expressed mRNA in the absence of chemical substance” value (yeast gene YKL146W) of the same compound?
A: 0.9

Q: What about the “The level of expressed mRNA in the presence of chemical substance/The level of expressed mRNA in the absence of chemical substance” value (yeast gene YKR039W) of the same compound?
A: 1.1

Q: And the “The level of expressed mRNA in the presence of chemical substance/The level of expressed mRNA in the absence of chemical substance” value (yeast gene YKR067W)?
A: 1.0

Q: What about the “The level of expressed mRNA in the presence of chemical substance/The level of expressed mRNA in the absence of chemical substance” value (yeast gene YLL028W) of the same compound?
A: 1.2

Q: What about the “The level of expressed mRNA in the presence of chemical substance/The level of expressed mRNA in the absence of chemical substance” value (yeast gene YLR081W) of the same compound?
A: 0.9

Q: And the “The level of expressed mRNA in the presence of chemical substance/The level of expressed mRNA in the absence of chemical substance” value (yeast gene YLR295C)?
A: 1.5

Q: And the “The level of expressed mRNA in the presence of chemical substance/The level of expressed mRNA in the absence of chemical substance” value (yeast gene YLR348C)?
A: 1.0

Q: And the “The level of expressed mRNA in the presence of chemical substance/The level of expressed mRNA in the absence of chemical substance” value (yeast gene YLR378C)?
A: 0.7

Q: And the “The level of expressed mRNA in the presence of chemical substance/The level of expressed mRNA in the absence of chemical substance” value (yeast gene YMR011W)?
A: 1.6

Q: And the “The level of expressed mRNA in the presence of chemical substance/The level of expressed mRNA in the absence of chemical substance” value (yeast gene YMR162C)?
A: 1.1

Q: And the “The level of expressed mRNA in the presence of chemical substance/The level of expressed mRNA in the absence of chemical substance” value (yeast gene YMR203W)?
A: 0.7

Q: What about the “The level of expressed mRNA in the presence of chemical substance/The level of expressed mRNA in the absence of chemical substance” value (yeast gene YNL055C) of the same compound?
A: 1.7

Q: And the “The level of expressed mRNA in the presence of chemical substance/The level of expressed mRNA in the absence of chemical substance” value (yeast gene YNL259C)?
A: 2.4

Q: And the “The level of expressed mRNA in the presence of chemical substance/The level of expressed mRNA in the absence of chemical substance” value (yeast gene YNR072W)?
A: 1.0

Q: What about the “The level of expressed mRNA in the presence of chemical substance/The level of expressed mRNA in the absence of chemical substance” value (yeast gene YOL119C) of the same compound?
A: 1.0

Q: What about the “The level of expressed mRNA in the presence of chemical substance/The level of expressed mRNA in the absence of chemical substance” value (yeast gene YOL156W) of the same compound?
A: 0.9

Q: And the “The level of expressed mRNA in the presence of chemical substance/The level of expressed mRNA in the absence of chemical substance” value (yeast gene YOL163W)?
A: 0.8

Q: And the “The level of expressed mRNA in the presence of chemical substance/The level of expressed mRNA in the absence of chemical substance” value (yeast gene YOR035C)?
A: 2.1

Q: And the “The level of expressed mRNA in the presence of chemical substance/The level of expressed mRNA in the absence of chemical substance” value (yeast gene YOR130C)?
A: 1.1

Q: And the “The level of expressed mRNA in the presence of chemical substance/The level of expressed mRNA in the absence of chemical substance” value (yeast gene YOR153W)?
A: 3.1

Q: And the “The level of expressed mRNA in the presence of chemical substance/The level of expressed mRNA in the absence of chemical substance” value (yeast gene YOR273C)?
A: 3.1

Q: And the “The level of expressed mRNA in the presence of chemical substance/The level of expressed mRNA in the absence of chemical substance” value (yeast gene YOR316C)?
A: 1.0

Q: And the “The level of expressed mRNA in the presence of chemical substance/The level of expressed mRNA in the absence of chemical substance” value (yeast gene YOR332W)?
A: 1.7

Q: And the “The level of expressed mRNA in the presence of chemical substance/The level of expressed mRNA in the absence of chemical substance” value (yeast gene YOR348C)?
A: 0.9

Q: And the “The level of expressed mRNA in the presence of chemical substance/The level of expressed mRNA in the absence of chemical substance” value (yeast gene YPL036W)?
A: 0.5

Q: And the “The level of expressed mRNA in the presence of chemical substance/The level of expressed mRNA in the absence of chemical substance” value (yeast gene YPL134C)?
A: 1.3

Q: What about the “The level of expressed mRNA in the presence of chemical substance/The level of expressed mRNA in the absence of chemical substance” value (yeast gene YPL147W) of the same compound?
A: 3.6

Q: And the “The level of expressed mRNA in the presence of chemical substance/The level of expressed mRNA in the absence of chemical substance” value (yeast gene YPL271W)?
A: 1.3

Q: What about the “The level of expressed mRNA in the presence of chemical substance/The level of expressed mRNA in the absence of chemical substance” value (yeast gene YPR192W) of the same compound?
A: 0.9

Q: And the “The level of expressed mRNA in the presence of chemical substance/The level of expressed mRNA in the absence of chemical substance” value (yeast gene YPR194C)?
A: 0.9
